As usually defined, the IC50 is the concentration that inhibits the measured activity by half.

One assay has as its target Met (Homo sapiens, UniProt P08581). Description: Human Met kinase assay (33P-phosphoryl transfer radiometric, KinaseProfiler). Also noted: Human Met (residues R974-S1390 with A1209G and V1290L, 3.4 nM); purchased Eurofins Pharma Discovery Services UK Limited (KinaseProfiler service). Particulars: biochemical activity; 10 μM ATP; read-out: c-Met IC50. On the procedure:
(§1) Kinase activity and compound inhibition were investigated using the ^33P-Phosphoryl transfer radiometric kinase assay, performed using the KinaseProfiler™ service of Eurofins Pharma Discovery Services UK Limited. Dose-response experiments were performed using nine compound concentrations in a 96-well microtiter plate. For each assay, all compounds were prepared to a 50× final assay concentration (50 μM) in 100% DMSO, then diluted in a half-log series, with the final top concentration at 1 μM. This working stock of the compound was added to the assay well as the first component in the reaction, followed by the remaining components as detailed in the following assay protocols below. The positive control wells (100% kinase activity) contain all components of the reaction including 2% DMSO (control for solvent effects), except the compound of interest. Blank wells contain all components of the reaction, with the reference inhibitor, staurosporine. This reference compound was used to abolish kinase activity and generated the 0% kinase activity base-line. IC50 values were calculated by nonlinear regression analysis using the sigmoidal dose-response (variable slope) curve fit on XLFit version 5.3 (ID Business Solutions).
(§2) Human Met (residues R974-S1390 with A1209G and V1290L, 3.4 nM) was incubated with 8 mM MOPS pH 7.0, 0.2 mM EDTA, 250 μM KKKGQEEEYVFIE, 1 mM sodium orthovanadate, 5 mM sodium-6-glycerophosphate, 10 mM magnesium acetate, and 10 μM [γ-^33P-ATP]. The reaction was initiated by the addition of the Mg/ATP mix. After incubation for 40 minutes at room temperature, the reaction was stopped by the addition of phosphoric acid to a concentration of 0.5%. A reaction aliquot of 10 μL was then spotted onto a P30 filtermat and washed four times for 4 minutes in 0.425% phosphoric acid and once in methanol prior to drying and scintillation counting. Incorporated ^33P was measured using the Wallac Microbeta scintillation counter (Perkin Elmer).

A further assay concerns the target T1, Human Axl (Homo sapiens, UniProt P30530, Q764R).
T1 construct: Human Axl (residues H473-A894 with Q764R, 161 nM); purchased Eurofins Pharma Discovery Services UK Limited (KinaseProfiler service)
T1 sequence (P30530 473-894 Q764R): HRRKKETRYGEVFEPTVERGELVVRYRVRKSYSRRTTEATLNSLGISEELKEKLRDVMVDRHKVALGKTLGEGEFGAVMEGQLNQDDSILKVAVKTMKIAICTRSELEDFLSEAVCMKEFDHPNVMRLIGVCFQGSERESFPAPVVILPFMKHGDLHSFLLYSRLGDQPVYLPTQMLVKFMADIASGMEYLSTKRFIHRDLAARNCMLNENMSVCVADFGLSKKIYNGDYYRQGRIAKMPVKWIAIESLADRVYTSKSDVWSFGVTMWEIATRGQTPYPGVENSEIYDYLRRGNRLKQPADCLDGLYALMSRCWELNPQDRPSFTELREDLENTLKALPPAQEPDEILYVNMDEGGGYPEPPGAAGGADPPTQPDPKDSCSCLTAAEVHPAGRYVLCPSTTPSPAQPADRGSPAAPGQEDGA
Description: Human AXL kinase assay (33P-phosphoryl transfer radiometric, KinaseProfiler). Particulars: biochemical activity; 10 μM ATP. On the procedure: as §1
as §2, with “Axl” for “Met”, “H473-A894” for “R974-S1390”, “Q764R, 161” for “A1209G and V1290L, 3.4”, “KKSRGDYMTMQIG,” for “KKKGQEEEYVFIE, 1 mM sodium orthovanadate, 5 mM sodium-6-glycerophosphate,”, “[y-^33P-ATP].” for “[γ-^33P-ATP].”

Structures are written as SMILES. Where only a bound is given, the exact number is not on record here.

Met, sequence (P08581 974-1390): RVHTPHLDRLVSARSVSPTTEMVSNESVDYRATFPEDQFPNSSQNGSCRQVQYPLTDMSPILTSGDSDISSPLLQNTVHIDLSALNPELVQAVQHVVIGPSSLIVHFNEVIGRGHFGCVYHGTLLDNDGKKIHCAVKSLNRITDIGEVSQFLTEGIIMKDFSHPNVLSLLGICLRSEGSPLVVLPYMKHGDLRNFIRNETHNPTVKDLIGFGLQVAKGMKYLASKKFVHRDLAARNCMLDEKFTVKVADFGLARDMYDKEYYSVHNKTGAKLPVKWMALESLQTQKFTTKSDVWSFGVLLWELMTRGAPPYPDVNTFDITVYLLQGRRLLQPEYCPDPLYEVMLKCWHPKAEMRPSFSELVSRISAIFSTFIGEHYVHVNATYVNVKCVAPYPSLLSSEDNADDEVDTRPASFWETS

Regarding `Cn1cnc(-c2ccc3c(Oc4ccc(NC(=O)C5(C(=O)Nc6ccc(F)cc6)CC5)cc4)ccnc3c2)c1` [Compound 69, 1-N′-(4-Fluorophenyl)-1-N-[4-[7-(1-methylimidazol-4-yl)quinolin-4-yl]oxyphenyl]cyclopropane-1,1-dicarboxamide], the IC50 on Met and against Human Axl was ≤ 10 nM in each case.

As for `O=C(Nc1ccc(F)cc1)C1(C(=O)Nc2ccc(Oc3ccnc4cc(-c5cnn[nH]5)ccc34)cc2)CC1` [Compound 65, 1-N′-(4-Fluorophenyl)-1-N-[4-[7-(1H-triazol-5-yl)quinolin-4-yl]oxyphenyl]cyclopropane-1,1-dicarboxamide], the IC50 on Met and on Human Axl was 100 to 1000 nM each time.

Turning to `O=C(Nc1ccc(F)cc1)C1(C(=O)Nc2ccc(Oc3ccnc4cc(-c5ncc[nH]5)ccc34)cc2)CC1` [Compound 74, 1-N′-(4-Fluorophenyl)-1-N-[4-[7-(1H-imidazol-2-yl)quinolin-4-yl]oxyphenyl]cyclopropane-1,1-dicarboxamide], the IC50 at Met and on Human Axl was ≤ 10 nM each time.

Take `O=C(Nc1ccc(F)cc1)C1(C(=O)Nc2ccc(Oc3ccnc4cc(-c5cnn(C(F)(F)F)c5)ccc34)cc2)CC1` [Compound 12, 1-N′-(4-Fluorophenyl)-1-N-[4-[7-[1-(trifluoromethyl)pyrazol-4-yl]quinolin-4-yl]oxyphenyl]cyclopropane-1,1-dicarboxamide]: the IC50 at Met and against Human Axl was 10 to 100 nM in each case.

On to `O=C(Nc1ccc(F)cc1)C1(C(=O)Nc2ccc(Oc3ccnc4cc(-c5ncco5)ccc34)cc2)CC1` [Compound 66, 1-N′-(4-Fluorophenyl)-1-N-[4-[7-(1,3-oxazol-2-yl)quinolin-4-yl]oxyphenyl]cyclopropane-1,1-dicarboxamide], for which the IC50 is ≤ 10 nM at Met and 10 to 100 nM against Human Axl.

In the case of `O=C(Nc1ccc(F)cc1)C1(C(=O)Nc2ccc(Oc3ccnc4cc(-c5cnn(CC(F)(F)F)c5)ccc34)cc2)CC1` [Compound 16, 1-N′-(4-Fluorophenyl)-1-N-[4-[7-[1-(2,2,2-trifluoroethyl)pyrazol-4-yl]quinolin-4-yl]oxyphenyl]cyclopropane-1,1-dicarboxamide], the IC50 at Met and against Human Axl was 10 to 100 nM throughout.

For the compound `O=C(Nc1ccc(F)cc1)C1(C(=O)Nc2ccc(Oc3ccnc4cc(-c5ccccn5)ccc34)cc2)CC1` [Compound 85, 1-N′-(4-Fluorophenyl)-1-N-[4-(7-pyridin-2-ylquinolin-4-yl)oxyphenyl]cyclopropane-1,1-dicarboxamide], the IC50 on Met and against Human Axl was 10 to 100 nM each time.

As for `O=C(Nc1ccc(F)cc1)C1(C(=O)Nc2ccc(Oc3ccnc4cc(-c5cnc[nH]5)ccc34)cc2)CC1` [Compound 72, 1-N′-(4-Fluorophenyl)-1-N-[4-[7-(1H-imidazol-5-yl)quinolin-4-yl]oxyphenyl]cyclopropane-1,1-dicarboxamide], the IC50 on Met and on Human Axl was ≤ 10 nM in each case.

As for `Cn1nccc1-c1ccc2c(Oc3ccc(NC(=O)C4(C(=O)Nc5ccc(F)cc5)CC4)cc3)ccnc2c1` [Compound 54, 1-N′-(4-Fluorophenyl)-1-N-[4-[7-(2-methylpyrazol-3-yl)quinolin-4-yl]oxyphenyl]cyclopropane-1,1-dicarboxamide], the IC50 on Met is ≤ 10 nM; on Human Axl it was 10 to 100 nM.

`O=C(Nc1ccc(F)cc1)C1(C(=O)Nc2ccc(Oc3ccnc4cc(-c5cnn(CC(F)F)c5)ccc34)cc2)CC1` [Compound 15, 1-N-[4-[7-[1-(2,2-Difluoroethyl)pyrazol-4-yl]quinolin-4-yl]oxyphenyl]-1-N′-(4-fluorophenyl)cyclopropane-1,1-dicarboxamide]: the IC50 on Met and against Human Axl was ≤ 10 nM throughout.

As to `Cn1ccc(-c2ccc3c(Oc4ccc(NC(=O)C5(C(=O)Nc6ccc(F)cc6)CC5)cc4)ccnc3c2)n1` [Compound 17, 1-N′-(4-Fluorophenyl)-1-N-[4-[7-(1-methylpyrazol-3-yl)quinolin-4-yl]oxyphenyl]cyclopropane-1,1-dicarboxamide], the IC50 at Met is ≤ 10 nM; against Human Axl, 10 to 100 nM.

Take `Cn1cc(-c2ccc3c(Oc4ccc(NC(=O)C5(C(=O)Nc6ccc(F)cc6)CC5)cc4)ccnc3c2)cn1` [Compound 11, 1-N′-(4-Fluorophenyl)-1-N-[4-[7-(1-methylpyrazol-4-yl)quinolin-4-yl]oxyphenyl]cyclopropane-1,1-dicarboxamide]: the IC50 on Met and at Human Axl was ≤ 10 nM each time.

Consider `O=C(Nc1ccc(F)cc1)C1(C(=O)Nc2ccc(Oc3ccnc4cc(C5CCNC5)ccc34)cc2)CC1` (stereo not shown) [Compound 83, 1-N′-(4-Fluorophenyl)-1-N-[4-(7-pyrrolidin-3-ylquinolin-4-yl)oxyphenyl]cyclopropane-1,1-dicarboxamide], for which the IC50 at Met was ≤ 10 nM; against Human Axl, 10 to 100 nM.

`O=C(Nc1ccc(F)cc1)C1(C(=O)Nc2ccc(Oc3ccnc4cc(-c5cnn(CCF)c5)ccc34)cc2)CC1` [Compound 14, 1-N-[4-[7-[1-(2-Fluoroethyl)pyrazol-4-yl]quinolin-4-yl]oxyphenyl]-1-N′-(4-fluorophenyl)cyclopropane-1,1-dicarboxamide]: the IC50 at Met and on Human Axl was ≤ 10 nM throughout.

For the compound `Cn1ccnc1-c1ccc2c(Oc3ccc(NC(=O)C4(C(=O)Nc5ccc(F)cc5)CC4)cc3)ccnc2c1` [Compound 75, 1-N′-(4-Fluorophenyl)-1-N-[4-[7-(1-methylimidazol-2-yl)quinolin-4-yl]oxyphenyl]cyclopropane-1,1-dicarboxamide], the IC50 at Met was ≤ 10 nM; against Human Axl, 10 to 100 nM.

With `O=C(Nc1ccc(F)cc1)C1(C(=O)Nc2ccc(Oc3ccnc4cc(-c5ccn(C(F)F)n5)ccc34)cc2)CC1` [Compound 84, 1-N-[4-[7-[1-(Difluoromethyl)pyrazol-3-yl]quinolin-4-yl]oxyphenyl]-1-N′-(4-fluorophenyl)cyclopropane-1,1-dicarboxamide], the IC50 at Met and against Human Axl was 10 to 100 nM in each case.

As to `O=C(Nc1ccc(F)cc1)C1(C(=O)Nc2ccc(Oc3ccnc4cc(-c5cnn(C6COC6)c5)ccc34)cc2)CC1` [Compound 24, 1-N′-(4-Fluorophenyl)-1-N-[4-[7-[1-(oxetan-3-yl)pyrazol-4-yl]quinolin-4-yl]oxyphenyl]cyclopropane-1,1-dicarboxamide], the IC50 at Met and at Human Axl was ≤ 10 nM in each case.

In the case of `Cn1ncc(-c2ccc3c(Oc4ccc(NC(=O)C5(C(=O)Nc6ccc(F)cc6)CC5)cc4)ccnc3c2)n1` [Compound 86, 1-N′-(4-Fluorophenyl)-1-N-[4-[7-(2-methyltriazol-4-yl)quinolin-4-yl]oxyphenyl]cyclopropane-1,1-dicarboxamide], the IC50 at Met and against Human Axl was ≤ 10 nM each time.

Take `Cc1noc(C)c1-c1ccc2c(Oc3ccc(NC(=O)C4(C(=O)Nc5ccc(F)cc5)CC4)cc3)ccnc2c1` [Compound 53, 1-N-[4-[7-(3,5-Dimethyl-1,2-oxazol-4-yl)quinolin-4-yl]oxyphenyl]-1-N′-(4-fluorophenyl)cyclopropane-1,1-dicarboxamide]: the IC50 on Met fell in the range of 10 to 100 nM; on Human Axl, 100 to 1000 nM.

`CC(=O)N1CCC(n2cc(-c3ccc4c(Oc5ccc(NC(=O)C6(C(=O)Nc7ccc(F)cc7)CC6)cc5)ccnc4c3)cn2)CC1` [Compound 62, 1-N-[4-[7-[1-(1-Acetylpiperidin-4-yl)pyrazol-4-yl]quinolin-4-yl]oxyphenyl]-1-N′-(4-fluorophenyl)cyclopropane-1,1-dicarboxamide]: the concentration for half-maximal inhibition (IC50) at Met and at Human Axl was ≤ 10 nM each time.
